Assay results: article PMC5961436, “PKA and PKC Modulators Affect Ion Channel Function and Internalization of Recombinant Alpha1 and Alpha1-Beta Glycine Receptors” (Frontiers in Molecular Neuroscience, 2018)
Where two headings read alike, the source gives them in different places.

Tests used:
[1] = tested on: human homomeric α1 GlyRs; test: Whole-cell patch-clamp of glycine induced currents, modulators in the intracellular buffer, HEK293 cells expressing GlyR α1; assay type: cell-based; details: for change of Imax at t = 10 min normalized to t = 0: 0.25 μM intracellular modulator, one-way ANOVA; for effect on EC50: 0.25 μM modulator, t = 0; for desensitization of glycine induced currents / effect on EC50 compared to control / Fraction of desensitizing cells / Imax: 0.5 μM modulator in intracellular buffer; for Fraction of desensitizing cells / Imax: mean ± SEM
Method: (§1) HEK293 cells were grown in 10 cm tissue culture Petri dishes in Eagle minimal essential medium (Sigma-Aldrich Chemie GmbH, Munich, Germany) supplemented with 10% FBS (Invitrogen, Karlsruhe, Germany) and penicillin/streptomycin (Sigma-Aldrich Chemie GmbH, Munich, Germany) at 5% CO2 and 37°C in a water saturated atmosphere. For electrophysiological experiments, cells were plated on poly-L lysine treated glass coverslips in 6 cm dishes. Transfection was performed 1 day after cell passage using Gen-Carrier (Epoch Lifesciences, Sugarland, TX, USA): 1.3 μg of receptor DNA, 1.3 μg of green fluorescent protein DNA, and 2.6 μl GenCarrier were used, following the manufacturer’s instructions. Measurements were performed 2–4 days after transfection. HEK293 cells used for protein expression and internalization analysis were transfected using a modified calcium phosphate precipitation method. In brief, a mixture of plasmid DNA, CaCl2 (2.5M), 0.1× TE buffer and 2× HBS (50 mM HEPES, 12 mM glucose, 10 mM KCl, 280 mM NaCl, 1.5 mM Na2HPO4) was applied onto the cells for 6 h. A GlyR α1 to GlyR β ratio of 1:2 was used for co-expression. Transfection medium was replaced by fresh medium after 6 h. Immunocytochemical stainings were always done 24 h after transfection, biotinylation experiments were performed 48 h after transfection.
(§2) using a nonlinear algorithm in Microcal Origin. Here, Iglycine is the current amplitude at a given glycine concentration, Isat is the maximum current amplitude at saturating concentrations of glycine, EC50 is the glycine concentration at half-maximal current responses, and nHill is the Hill coefficient. Currents from each individual cell were normalized to the maximum response at saturating glycine concentrations. Significance of differences between EC50 values were determined using one-way ANOVA with p ≤ 0.05 (*) and p ≤ 0.01 (**) taken as significant. In all experiments, EC50 values were determined for each individual cell from a non-linear fit of dose response data to the logistic equation. An unweighted average ± standard error (SEM) was calculated from all individual EC50 values, without considering the fitting errors.
(§3) For time course analysis, a series of EC50 data was recorded from each cell. The first concentration-response curve, defined as t = 0, was recorded immediately after establishing the whole-cell configuration and positioning the cell in front of the delivery tube. […] Further recordings were made at t = 3 min, t = 6 min and t = 10 min (not attained with all cells). Time-independent recordings were taken at t = 0, and values of EC50 and Imax in the presence of PKA- or PKC modulators were normalized to control (no modulator). For time course analysis, responses were normalized to the control value at t = 0. Patch-clamp experiments were carried out on different dates and using different batches of HEK 293 cells. Since control EC50 values varied between different days of plating and between batches of cells, measurements with kinase modulators were always compared to control measurements recorded on the same day and from the same batch of cells.

[2] = tested on: human heteromeric α1-β GlyRs; test: Whole-cell patch-clamp of glycine induced currents, modulators in the intracellular buffer, HEK293 cells expressing GlyR α1-β; assay type: cell-based; details: for desensitization of glycine induced currents / effect on EC50 compared to control / Fraction of desensitizing cells / Imax: 0.5 μM modulator in intracellular buffer; for Fraction of desensitizing cells / Imax: mean ± SEM
Method: as §1, §2, §3

[3] = tested on: GlyR α1-β; test: Receptor internalization assay (pre-labeled GlyRs, confocal microscopy) in HEK293 cells; assay type: cell-based, human; details: 200 nM modulator, 15 min, 37°C; untreated cells 1.7 ± 0.4 dots/cell; ± SEM
Method: To stain internalized GlyRs, GlyR α1 was cotransfected with GlyR β into HEK293 cells grown on glass cover slips. Internalization experiments were performed 24 h post-transfection. Live cells co-expressing GlyR α1-β receptors were labeled with the α1-specific monoclonal antibody Mab2b (1:500 in Earle’s minimal essential medium for 1 h at 4°C). Earle’s minimal essential medium was supplemented with 10% fetal calf serum, […] GlutaMAX, 100 mM sodium pyruvate, and 50 U/ml penicillin/streptomycin (Thermo Fisher Scientific, Waltham, MA, USA). Mab2b was purchased from Synaptic Systems, Göttingen, Germany. Following three washing steps in phosphate-buffered saline (PBS, pH 7.4), cells were incubated with goat-anti-mouse-Cy3 secondary antibody again for 1 h at 4°C (dilution of secondary antibody 1:500 in Earle’s minimal essential medium, Dianova, Hamburg Germany). Glass cover slips with pre-labeled GlyRs were transferred into a 24-well plate containing 500 μl of Earle’s minimal essential medium with PKA and PKC modulators (200 nM final concentration each; Forskolin, H-89, PMA, Staurosporine aglycon, all from Sigma-Aldrich Chemie GmbH, Munich, Germany). Cells were incubated with modulators for 15 min to allow receptor internalization. Time point zero (0 min) was taken as a negative internalization control to ensure health of HEK293 cells (pre-labeling of GlyRs at 4°C inhibits internalization). Following incubation with PKA and PKC modulators, cells were stained with a second secondary antibody (donkey-anti-goat-Dyelight488, 1:250 in Earle’s minimal essential medium, Dianova, Hamburg, Germany) for 30 min at 4°C to label receptor retained at the cellular surface. Cells were fixed with 4% paraformaldehyde, 4% sucrose in PBS for 15 min at 4°C, washed three times in PBS and stained with 4′,6-diamidino-2-phenylindole (DAPI, Thermo Fisher Scientific, Waltham, MA, USA) to label the cell nuclei for 5 min at 4°C (1:5000 in PBS). Coverslips were washed again with PBS and Aqua Dest and mounted on glass slides using mowiol.
The images were obtained using an inverted Olympus IX81 microscope equipped with an Olympus FV1000 confocal laser scanning system, a FVD10 SPD spectral detector and diode lasers of 495 nm (Alexa488) and 550 nm (Cy3; Olympus, Tokyo, Japan), and an Olympus UPLSAPO 60× (oil, numerical aperture: 1.35) objective. Adobe Photoshop (Adobe, San Jose, CA, USA) or ImageJ (1.51)/Fiji^1 were used for image analysis.

[4] = tested on: Igly; parameters: method as in Min et al., 1996; details: ref Min et al., 1996; cited from earlier work
[5] = tested on: glycine activated chloride currents; parameters: method as in Ren et al., 1998; details: added to the pipette solution; ref Ren et al., 1998; cited from earlier work
[6] = tested on: homomeric α1 GlyRs; parameters: method as in Uchiyama et al., 1994; details: ref Uchiyama et al., 1994; cited from earlier work
[7] = tested on: HEK293 cells; test: Tolerance of HEK293 cells to intracellular kinase modulators during patch-clamp; details: intracellular concentration raised to 1 μM
Method: Whole-cell recording experiments were performed using a HEKA EPC10 amplifier (HEKA Electronics, Lambrecht, Germany) controlled by Pulse software (HEKA). Recording pipettes were pulled from borosilicate glass (World Precision Instruments, Berlin, Germany) using a Sutter P-97 horizontal puller (Sutter, Novato, CA, USA). […] Series resistance, as well as slow and fast capacitance were compensated using the EPC10 circuitry. The different protein kinase modulators were dissolved in intracellular buffer at a concentration of 0.5 μM. For studies of concentration- and time-dependence, kinase modulators were used at concentrations of 0.1 μM and 0.25 μM. Current responses were measured at room temperature (21–23°C) at a holding potential of −50 mV. Solutions were applied using an Octaflow system (NPI electronics, Tamm, Germany), where cells were bathed in a laminar flow of buffer, giving a time resolution for solution exchange and re-equilibration of about 100 ms. The external buffer consisted of 135 mM NaCl, 5.5 mM KCl, 2 mM CaCl2, 1.0 mM MgCl2 and 10 mM Hepes (pH adjusted to 7.4 with NaOH); the internal buffer was 140 mM CsCl, 1.0 mM CaCl2, 2.0 mM MgCl2, 5.0 mM EGTA and 10 mM Hepes (pH adjusted to 7.2 with CsOH).

[8] = tested on: GlyRs; parameters: method as in Salceda and Aguirre-Ramirez, 2005; details: 10 μM Forskolin; ref Salceda and Aguirre-Ramirez, 2005; cited from earlier work
[9] = tested on: GlyR; parameters: method as in Li and Yang, 2001; details: ref Li and Yang, 2001; cited from earlier work
[10] = tested on: nAChR; parameters: method as in Wagoner and Pallotta, 1988; details: cAMP-independent; ref Wagoner and Pallotta, 1988; cited from earlier work
[11] = tested on: GABA- and Gly-gated currents; parameters: method as in Machu et al., 2006; details: oocytes; ref Machu et al., 2006; cited from earlier work
[12] = tested on: GABA- and Gly-gated currents; parameters: method as in Machu et al., 2006; details: HEK293 cells, ref Machu et al., 2006, cited from earlier work
[13] = tested on: GlyR; parameters: method as in Vaello et al., 1994; details: ref Vaello et al., 1994; cited from earlier work
[14] = tested on: glycine currents; parameters: method as in Tapia et al., 1997; details: ref Tapia et al., 1997; cited from earlier work
[15] = tested on: GlyRα1; parameters: method as in Huang et al., 2007; details: ref Huang et al., 2007; cited from earlier work

Row | Structure (SMILES) | change of Imax at t = 10 min normalized to t = 0 [1] | effect on EC50 [1] | desensitization of glycine induced currents ([1]; GlyR α1) | effect on EC50 compared to control ([1]; GlyR α1) | Fraction of desensitizing cells ([1]; GlyR α1) | Imax ([1]; GlyR α1) [nA] | desensitization of glycine induced currents [2] | effect on EC50 compared to control [2] | Fraction of desensitizing cells [2] | Imax [2] [nA] | internalized receptor [3] [dots/cell] | other results
1 | O=S(=O)(NCCNC/C=C/c1ccc(Br)cc1)c1cccc2cnccc12 [H-89] | not significant | opposite effect | non-desensitizing current responses | decreased EC50 values | 0.07 ± 0.03 | 1.91 ± 0.57 | non-desensitizing current responses | decreased EC50 values | 0.19 ± 0.09 | 1.37 ± 0.28 | 4.0 ± 1.0 | effect on Igly [4]: potentiation of Igly; effect on ATP induced run-up of the glycine current [5]: blocked
2 | O=C1NCc2c1c1c3ccccc3[nH]c1c1[nH]c3ccccc3c21 [Staurosporine aglycon] | not significant | opposite effect | slow or no desensitization | decrease of half maximum values | 0.10 ± 0.05 | 1.70 ± 0.29 | slow or no desensitization | decrease of half maximum values | 0.06 ± 0.04 | 1.11 ± 0.20 | 2.3 ± 0.5 | effect of 4-beta-PMA in the presence of Staurosporine aglycon [6]: the effect was inhibited; cell survival [7]: cells did not survive
3 | C=C[C@@]1(C)CC(=O)[C@]2(O)[C@@]3(C)[C@@H](O)CCC(C)(C)[C@@H]3[C@H](O)[C@H](OC(C)=O)[C@@]2(C)O1 [Forskolin] | significantly reduced | increased EC50 | faster desensitization | significant increase | 0.57 ± 0.12 | 1.20 ± 0.24 | faster desensitization | significant increase | 0.52 ± 0.07 | 0.99 ± 0.24 | 6.9 ± 1.5 | reduction of specific binding of both radioligands [8]: 30%–90%; effect on desensitization of whole cell responses [9]: markedly accelerates desensitization; effect on Igly [4]: inhibited Igly potentiation; effect on desensitization of the nAChR [10]: enhancement of desensitization
4 | CCCCCCCCCCCCCC(=O)O[C@@H]1[C@@H](C)[C@@]2(O)[C@@H](C=C(CO)C[C@]3(O)C(=O)C(C)=C[C@@H]23)[C@@H]2C(C)(C)[C@]12OC(C)=O [4-beta-PMA] |  |  |  |  |  |  |  |  |  |  |  | effect on glycine currents [6]: Reduced responses
5 | CCCCCCCCCCCCCC(=O)O[C@@H]1[C@@H](C)[C@@]2(O)[C@@H](C=C(CO)C[C@@]3(O)C(=O)C(C)=C[C@@H]23)[C@@H]2C(C)(C)[C@]12OC(C)=O [4-alpha-PMA] |  |  |  |  |  |  |  |  |  |  |  | effect on glycine currents [6]: did not affect the glycine currents
6 | NCC(=O)O [glycine] |  |  |  |  |  |  |  |  |  |  |  | EC50 ([1]; GlyR α1, absence of modulators, n = 11): 37.4 ± 3.7 µM; EC50 ([2]; absence of modulators, n = 8): 45.4 ± 6 µM
7 | CCCCCCCCCCCCCC(=O)O[C@@H]1[C@@H](C)[C@@]2(O)[C@@H](C=C(CO)C[C@]3(O)C(=O)C(C)=C[C@@H]23)[C@@H]2C(C)(C)[C@]12OC(C)=O [PMA, phorbol-12-myristate-13-acetate] | significantly reduced | increased EC50 | no effect on receptor desensitization | increased | 0.05 ± 0.05 | 2.30 ± 0.74 | no effect on receptor desensitization | not statistically significant | 0.27 ± 0.08 | 1.26 ± 0.27 | 3.9 ± 0.7 | peak amplitude of GABA- and Gly-gated currents [11]: large, reproducible decrease; modulation of receptors ([12]; 35°C): decreased the function; modulation of receptors ([12]; room temperature): ineffective; effect on glycinergic currents [13]: decreased glycinergic currents; effect on glycine currents [14]: reduce the amplitude of glycine currents; start of receptor internalization [15]: ≤ 15 min
8 | C=C[C@@]1(C)CC(=O)[C@@H]2[C@@]3(C)CCCC(C)(C)[C@@H]3[C@H](O)[C@H](OC(C)=O)[C@@]2(C)O1 [1,9-dideoxy Forskolin] |  |  |  |  |  |  |  |  |  |  |  | effect on desensitization of whole cell responses [9]: accelerates the desensitization effectively
